From patent US8410161B2, “Thioxanthone ring system derivatives” (National Defense Medical Center, priority 2010, dated 2013)

How the values were obtained:
Format in all cases: cell-based
A3 cell lines = assay: MTT assay, A3 cell lines (lung cancer stem cell)
Description: Please to FIG. 4B, various cell viabilities of the A3 cell lines can be obtained through the MTT assay and illustrated in FIG. 4B while the compounds No. 1˜30 are used to treat A3 cell lines, wherein A3 cell lines are lung cancer stem cell.

A control cell lines = assay: MTT assay, A control cell lines (lung cancer cell)
Description: Please refer to Table 1 and FIGS. 4A-4C. According to a MTT assay (Table 1), various cell viabilities of the A control cell lines can be obtained and illustrated in FIG. 4A while the compounds No. 2˜30 are used to treat A control cell lines, wherein A control cell lines are lung cancer cell.

HEL299 fibroblast = assay: MTT assay, HEL299 fibroblast
Description: (§1) Please refer to FIG. 4C, various cell viabilities of the HEL299 cell lines can be obtained through the MTT assay while the compounds No. 1˜30 are used to treat HEL299 cell lines, wherein HEL299 cell lines are fibroblast.

[1] = MTT assay, HEL299 fibroblast; conditions: human
Description: as §1

Cc1ccc(Sc2ccc3c(=O)c4ccccc4sc3c2Cl)c(C)c1 [No. 10, 4-Chloro-3-(2,4-dimethylphenylthio)-9H-thioxanthen-9-one]
cell viabilities of A3 cell lines (MTT assay) (A3 cell lines): 59.9%
inhibition effect on A3 cell line (in words) (A3 cell lines; summary of MTT cell viabilities): inhibition effect
cell viabilities of A control cell lines (MTT assay) (A control cell lines): 104 ± 11.0%
cytotoxicity effect on the normal fibroblast (in words) (HEL299 fibroblast): without the cytotoxicity effect
viability [1]: 108%
